According to patent US7064120B2, “Tricyclic pyridyl carboxamides and derivatives thereof tocolytic oxytocin receptor antagonists” (Wyeth, priority 2001, dated 2006):

Molecular target: T1, human vasopressin V2 receptor subtype (Homo sapiens, UniProt P30518)
T1 construct: host or cells: CHO cells, stably transfected (pZeoSV vector)
Test: Vasopressin binding in CHO cell membranes expressing human vasopressin V2 subtype receptors ([3H]arginine vasopressin radioligand binding)
Conditions: 100 nM
Protocol: Vasopressin Binding in Chinese Hamster Ovary Cell Membranes Expressing Human Vasopressin V2 Subtype Receptors
Chinese Hamster Ovary (CHO) cells stably transfected with the human V2 subtype receptors were obtained from M. Thibonnier, Case Western Reserve University School of Medicine, Cleveland, Ohio.
The trypsin is removed by aspiration and the cells dislodged by tapping. Cell Culture medium (e.g. 30 mL for 1:30 split) is immediately added and mixed well to inactivate trypsin. 1 mL of detached cells is added to new culture flasks containing fresh Cell Culture medium (e.g. into 25 mL per T-150 flask), and mixed gently. The cells are incubated at 37° C. in 5% CO2. The medium is changed at 3 to 4 day interval (or as appropriate). […] All steps are done under sterile conditions.
The cells are washed twice gently with Hank's Balanced Salt solution (e.g. use 10 mL per T-150 flask). […] The contents are transferred to centrifuge tubes (50 mL) kept in ice bath. All subsequent steps are done at 4° C. The tubes are centrifuged at 300×g for 15 min (1380 rpm on SORVAL, Model RT6000D, using the rotor for 50 mL tubes). The supernatant is discarded and the cells suspended in homogenizing buffer(10 mM Tris-HCl containing 0.25 M sucrose and 1 mM EDTA, pH 7.4) ensuring that the volume of the buffer is about ten times the volume of the cell pellet. The cells are pooled into a centrifuge tube (50 mL) and homogenized with Polytron at setting 6 for 10 sec. The homogenate is transferred into a Potter-Elvjehm homogenizer and homogenized with 3 strokes. The homogenate is centrifuged at 1500×g for 60 min at 4° C. (3100 rpm using SORVAL, model RT6000D, using the rotor for 50 mL tubes). The pellet is discarded. The supernatant is centrifuged at 100,000×g for 60 min. at 4° C. (Beckman L8-80M ultracentrifuge; spin at 37,500 rpm with rotor type 70 Ti for 50 mL tubes; 38,000 rpm with type 80Ti for 15 mL tubes; or 35,800 rpm with rotor type 45Ti). The supernantant is discarded and the pellet suspended in 3 to 4 mL of Tris buffer (50 mM TRIS-HCl, pH 7.4). The protein content is estimated by the Bradford or Lowry method. The volume of the membrane suspension is adjusted with the membrane buffer (50 mM Tris-HCl containing 0.1% BSA and 0.1 mM PMSF) to give 3.0 mg/mL (or as appropriate) of protein. The membranes are aliquoted and stored at −70° C.
In wells of a 96-well format microtiter plate, is added 90, 110 or 130 μL (to make up a final volume of 200 μL) of assay buffer containing 50 mM of Tris-HCl (pH 7.4), […], 1 mg % aprotinin, 1 mg % leupeptin, 2 mg % 1,10-phenanthroline, 10 mg % trypsin inhibitor, and 0.1 mM PMSF. The inhibitors are added on the day of the experiment. The components are mixed at room temperature, and then kept in ice bath following adjustment of the pH to 7.4. […] For vasopressin and other peptide ligands 20 μL of 50% DMSO is added and the assay buffer volume is adjusted accordingly. To each well is added 50 μL of frozen membrane suspension thawed immediately prior to use and diluted in assay buffer to the required concentration (equivalent to 25 to 50 μg of protein/well as needed). 20 μL of 8 nM [^3H]arginine vasopressin ligand in the assay buffer, prepared just before use is added and incubated at room temperature for 60 min. shaking the plate on a mechanical shaker for the first 15 min. The incubation is stopped by rapid filtration of the plate contents followed by wash with ice-cold buffer (50 mM Tris-HCl, pH 7.4) using a cell harvester (Tomtek and Printed filtermat-B filter paper). The filter paper is thoroughly dried (7–12 min. in a microwave oven) and impregnated with MeltiLex B/H melt-on scintillation wax sheets and the radioactivity counted in a betaplate scintillation counter.
Binding data is either reported as percent inhibition at a certain concentration or if an IC50 was calculated, as a nanomolar concentration.

T1 sequence (P30518 whole entry): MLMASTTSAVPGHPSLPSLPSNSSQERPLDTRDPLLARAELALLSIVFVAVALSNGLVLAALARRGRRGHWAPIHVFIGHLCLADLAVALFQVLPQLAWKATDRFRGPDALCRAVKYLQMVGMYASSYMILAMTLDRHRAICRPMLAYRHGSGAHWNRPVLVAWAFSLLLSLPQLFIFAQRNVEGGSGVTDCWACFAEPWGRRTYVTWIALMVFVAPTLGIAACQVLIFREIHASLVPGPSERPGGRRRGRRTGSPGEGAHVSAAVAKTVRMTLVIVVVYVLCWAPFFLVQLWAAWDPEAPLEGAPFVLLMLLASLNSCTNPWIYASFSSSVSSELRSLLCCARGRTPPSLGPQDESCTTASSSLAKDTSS

Row | SMILES | inhibition at 0.1 µM | V2 % inhibition @ 100 nM
1 | O=C(NCc1ccccn1)c1ccc2n1Cc1ccccc1N(C(=O)c1ccc(-c3cccc4ccccc34)cc1Cl)C2 [Example 34, 10-[2-Chloro-4-(naphthalen-1-yl)benzoyl]-N-(2-pyridinylmethyl)-10,11-dihydro-5H-pyrrolo[2,1-c][1,4]benzodiazepine-3-carboxamide] | 5% | 
2 | COc1cccc(-c2ccc(C(=O)N3Cc4ccc(C(=O)NCc5ccccn5)n4Cc4ccccc43)cc2OC)c1 [Example 33, 10-[(2,3′-Dimethoxy-[1,1′-biphenyl]-4-yl)carbonyl]-N-(2-pyridinylmethyl)-10,11-dihydro-5H-pyrrolo[2,1-c][1,4]benzodiazepine-3-carboxamide] | 21% | 
3 | COc1cc(-c2ccccc2C)c(Cl)cc1C(=O)N1Cc2ccc(C(=O)N(C)CCc3ccncc3)n2Cc2ccccc21 [Example 132, 10-[(6-Chloro-3-methoxy-2′-methyl-[1,1′-biphenyl]-4-yl)carbonyl]-N-methyl-N-[2-(4-pyridinyl)ethyl]-10,11-dihydro-5H-pyrrolo[2,1-c][1,4]benzodiazepine-3-carboxamide] | 25% | 
4 | COc1ccccc1-c1ccc(C(=O)N2Cc3ccc(C(=O)N(C)CCc4ccccn4)n3Cc3ccccc32)cc1OC [Example 64, 10-[(2,2′-Dimethoxy-[1,1′-biphenyl]-4-yl)carbonyl]-N-methyl-N-[2-(2-pyridinyl)ethyl]-10,11-dihydro-5H-pyrrolo[2,1-c][1,4]benzodiazepine-3-carboxamide] | 13% | 
5 | Cc1ccccc1-c1ccc(C(=O)N2Cc3ccc(C(=O)NCc4ccccn4)n3Cc3ccccc32)cc1 [Example 27, 10-[(2′-Methyl-[1,1′-biphenyl]-4-yl)carbonyl]-N-(2-pyridinylmethyl)-10,11-dihydro-5H-pyrrolo[2,1-c][1,4]benzodiazepine-3-carboxamide] | 16% | 
6 | COc1cc(C(=O)N2Cc3ccc(C(=O)N4CCN(c5ccccn5)CC4)n3Cc3ccccc32)ccc1-c1cccc2ccccc12 [Example 83] |  | 22%
7 | COc1ccccc1-c1ccc(C(=O)N2Cc3ccc(C(=O)NCCc4ccccn4)n3Cc3ccccc32)cc1 [Example 52, 10-[(2′-Methoxy-[1,1′-biphenyl]-4-yl)carbonyl]-N-[2-(2-pyridinyl)ethyl]-10,11-dihydro-5H-pyrrolo[2,1-c][1,4]benzodiazepine-3-carboxamide] | 8% | 
8 | COc1cccc(-c2cc(OC)c(C(=O)N3Cc4ccc(C(=O)N(C)Cc5cccnc5)n4Cc4ccccc43)cc2Cl)c1 [Example 108, 10-[(6-Chloro-3,3′-dimethoxy-[1,1′-biphenyl]-4-yl)carbonyl]-N-methyl-N-(3-pyridinylmethyl)-10,11-dihydro-5H-pyrrolo[2,1-c][1,4]benzodiazepine-3-carboxamide] | 24% | 

Results, then the molecule that gave them:

Row | inhibition at 0.1 µM | V2 % inhibition @ 100 nM | SMILES
9 | 30% |  | COc1cccc(-c2ccc(C(=O)N3Cc4ccc(C(=O)N5CCN(c6ccncc6)CC5)n4Cc4ccccc43)cc2OC)c1 [Example 123, {10-[(2,3′-Dimethoxy-[1,1′-biphenyl]-4-yl)carbonyl]-10,11-dihydro-5H-pyrrolo[2,1-c][1,4]benzodiazepin-3-yl}[4-(4-pyridinyl)-1-piperazinyl]methanone]
10 | 11% |  | Cc1ccccc1-c1ccc(C(=O)N2Cc3ccc(C(=O)NCc4cccnc4)n3Cc3ccccc32)cc1 [Example 40, 10-[(2′-Methyl-[1,1′-biphenyl]-4-yl)carbonyl]-N-(3-pyridinylmethyl)-10,11-dihydro-5H-pyrrolo[2,1-c][1,4]benzodiazepine-3-carboxamide]
11 | 34% |  | COc1ccccc1-c1ccc(C(=O)N2Cc3ccc(C(=O)N4CCCCC4c4cccnc4)n3Cc3ccccc32)cc1 (centres unmarked) [Example 139, {10-[(2′-Methoxy-[1,1′-biphenyl]-4-yl)carbonyl]-10,11-dihydro-5H-pyrrolo[2,1-c][1,4]benzodiazepin-3-yl}[2-(3-pyridinyl)-1-piperidinyl]methanone]
12 | 5% |  | COc1ccccc1-c1ccc(C(=O)N2Cc3ccc(C(=O)N(C)CCc4ccncc4)n3Cc3ccccc32)cc1C [Example 126, 10-[(2′-Methoxy-2-methyl-[1,1′-biphenyl]-4-yl)carbonyl]-N-methyl-N-[2-(4-pyridinyl)ethyl]-10,11-dihydro-5H-pyrrolo[2,1-c][1,4]benzodiazepine-3-carboxamide]
13 | 19% |  | CN(CCc1ccncc1)C(=O)c1ccc2n1Cc1ccccc1N(C(=O)c1ccc(-c3cccc4ccccc34)cc1Cl)C2 [Example 136, 10-[2-Chloro-4-(naphthalen-1-yl)benzoyl]-N-methyl-N-[2-(4-pyridinyl)ethyl]-10,11-dihydro-5H-pyrrolo[2,1-c][1,4]benzodiazepine-3-carboxamide]
14 | 28% |  | COc1ccccc1-c1ccc(C(=O)N2Cc3ccc(C(=O)N(C)CCc4ccncc4)n3Cc3ccccc32)cc1 [Example 129, 10-[(2′-Methoxy-[1,1′-biphenyl]-4-yl)carbonyl]-N-methyl-N-[2-(4-pyridinyl)ethyl]-10,11-dihydro-5H-pyrrolo[2,1-c][1,4]benzodiazepine-3-carboxamide]
15 | 15% |  | Cc1ccccc1-c1ccc(C(=O)N2Cc3ccc(C(=O)N(C)CCc4ccncc4)n3Cc3ccccc32)cc1C [Example 127, 10-[(2,2′-Dimethyl-[1,1′-biphenyl]-4-yl)carbonyl]-N-methyl-N-[2-(4-pyridinyl)ethyl]-10,11-dihydro-5H-pyrrolo[2,1-c][1,4]benzodiazepine-3-carboxamide]
16 | 21% |  | COc1cccc(-c2ccc(C(=O)N3Cc4ccc(C(=O)NCc5cccnc5)n4Cc4ccccc43)cc2C)c1 [Example 38, 10-[(3′-Methoxy-2-methyl-[1,1′-biphenyl]-4-yl)carbonyl]-N-(3-pyridinylmethyl)-10,11-dihydro-5H-pyrrolo[2,1-c][1,4]benzodiazepine-3-carboxamide]
17 | 14% |  | COc1cccc(-c2cc(OC)c(C(=O)N3Cc4ccc(C(=O)NCc5ccccn5)n4Cc4ccccc43)cc2Cl)c1 [Example 30, 10-[(6-Chloro-3,3′-dimethoxy-[1,1′-biphenyl]-4-yl)carbonyl]-N-(2-pyridinylmethyl)-10,11-dihydro-5H-pyrrolo[2,1-c][1,4]benzodiazepine-3-carboxamide]
18 | 5% |  | COc1cc(-c2ccccc2C)c(Cl)cc1C(=O)N1Cc2ccc(C(=O)NCCc3ccccn3)n2Cc2ccccc21 [Example 55, 10-[(6-Chloro-3-methoxy-2′-methyl-[1,1′-biphenyl]-4-yl)carbonyl]-N-[2-(2-pyridinyl)ethyl]-10,11-dihydro-5H-pyrrolo[2,1-c][1,4]benzodiazepine-3-carboxamide]
19 | 21% |  | COc1ccccc1-c1ccc(C(=O)N2Cc3ccc(C(=O)NCc4ccccn4)n3Cc3ccccc32)cc1OC [Example 32, 10-[(2,2′-Dimethoxy-[1,1′-biphenyl]-4-yl)carbonyl]-N-(2-pyridinylmethyl)-10,11-dihydro-5H-pyrrolo[2,1-c][1,4]benzodiazepine-3-carboxamide]
20 | 12% |  | Cc1ccccc1-c1ccc(C(=O)N2Cc3ccc(C(=O)N(C)CCc4ccncc4)n3Cc3ccccc32)cc1 [Example 130, N-Methyl-10-[(2′-methyl-[1,1′-biphenyl]-4-yl)carbonyl]-N-[2-(4-pyridinyl)ethyl]-10,11-dihydro-5H-pyrrolo[2,1-c][1,4]benzodiazepine-3-carboxamide]
